Data reported in patent US20150258106A1, “METHODS FOR ACUTE AND LONG-TERM TREATMENT OF SUBSTANCE ABUSE” (DEMERX, INC., priority 2014, published 2015).

Assays:
[1] = system: opioid-dependent participants; experiment: Opiate withdrawal scales (COWS, SOWS, OOWS) in opioid-dependent participants; format: in vivo, human
Description: Patients were evaluated based on the Clinical Opiate Withdrawal Scale (COWS), Subjective Opiate Withdrawal Scale (SOWS), and Objective Opiate Withdrawal Scale (OOWS) scoring systems over the period of time between administration of noribogaine (or placebo) until resumption of OST. These scales are outlined in Guidelines for the Psychosocially Assisted Pharmacological Treatment of Opioid Dependence, World Health Organization, Geneva (2009), Annex 10, which is incorporated herein by reference in its entirety. The scales measure the intensity of withdrawal symptoms, based on clinical, subjective, and objective indicia.

[2] = system: opioid-dependent participants; experiment: QT interval evaluation in opioid-dependent participants; format: in vivo, human; conditions: opioid-dependent patients, first 24 hours post administration, 60-180 mg
Description: Patients' QT intervals were evaluated at regular time points throughout the study.

[3] = system: healthy, drug-free male volunteers; experiment: Pupillometry (pupillary miosis) in healthy volunteers; format: in vivo, human
Description: Pulse oximetry and capnography data were collected continuously using a GE Carescape B650 monitoring system from 2 hours prior to dosing and until six hours after dosing, and thereafter at 12, 24, 48 and 72 hours post-dosing. […] Pupillary miosis was assessed by pupillometry.
(§1) Summary statistics (means, standard deviations, and coefficients of variation) were determined for each dose group for safety laboratory test data, ECG and pharmacokinetic parameters, and pharmacodynamic variables. Categorical variables were analysed using counts and percentages. Dose-proportionality of AUC and Cmax was assessed using linear regression. The effect of dose on pharmacodynamic parameter values over time was assessed using two-factor analysis of variance (ANOVA). Pairwise comparisons (with Tukey-Kramer adjustment) between each dose group to the placebo were conducted at each time point using the least squares estimates obtained from the ANOVA, using SAS Proc Mixed (SAS ver 6.0).

[4] = system: opioid-dependent participants; experiment: Time to resumption of opioid substitution treatment (OST) in opioid-dependent participants; format: in vivo, human
Description: The efficacy of noribogaine in humans was evaluated in opioid-dependent participants in a randomized, placebo-controlled, double-blind trial. […] See U.S. application Ser. No. 14/214,157, filed Mar. 14, 2014 and Ser. No. 14/346,655, filed Mar. 21, 2014, which are incorporated herein by reference in their entireties.
Three cohorts of nine (9) subjects (6 administered noribogaine and 3 administered placebo in each cohort) were evaluated for tolerability, pharmacokinetics, and efficacy. Cohort 1 received a single dose of 60 mg noribogaine or placebo. Cohort 2 received a single dose of 120 mg noribogaine or placebo. Cohort 3 received a single dose of 180 mg noribogaine or placebo. […] Headaches were frequent in the placebo and 60 mg noribogaine treatment groups, but were attenuated in the 120 mg and 180 mg dose groups.

[5] = system: healthy, drug-free male volunteers; experiment: Cold pressor test (analgesic effect) in healthy volunteers; format: in vivo, human
Description: as §1
Analgesic effect was assessed based on duration of hand immersion in ice water and on visual analog scale (VAS) pain scores upon hand removal from the water bath.
Safety and tolerability of noribogaine were tested in the group of volunteers from Example 1. […] Safety evaluations included clinical monitoring, recording of adverse events (AEs), safety laboratory tests, vital signs, ECG telemetry from −2 h to 6 h after dosing, and 12-lead electrocardiograms (ECGs) up to 216 hours post-dosing.

[6] = Pharmacokinetics of noribogaine in healthy volunteers, ascending single oral dose (plasma noribogaine and noribogaine glucuronide); conditions: for CL/F: healthy male volunteers, fasted, n = 6, mean (SD); for mean AUC/24 hr / time after administration at which mean Cmax was observed / mean AUC/24: fasting
[7] = after adjusting for baseline differences, p>0.9
[8] = healthy volunteers, 3-60 mg single oral dose
[9] = single dose of 3 mg noribogaine free base
[10] = single dose of 10 mg noribogaine free base
[11] = single dose of 30 mg noribogaine free base
[12] = single dose of 60 mg noribogaine free base

CCC1CC2CC3c4[nH]c5ccc(O)cc5c4CCN(C2)C13 (stereo not shown) [Noribogaine]
withdrawal symptoms (COWS, OOWS, SOWS), first six hours following dosing ([1]; opioid-dependent patients, 120 mg): fewer withdrawal symptoms than the other patients
withdrawal symptoms (COWS, OOWS, SOWS), noribogaine compared with placebo ([1]; opioid-dependent patients, 60, 120 or 180 mg): Patients administered placebo generally experienced more withdrawal symptoms than patients who were administered noribogaine
QT interval prolongation (ΔQTc1) [2]: dose-dependent increase in QT interval prolongation
pupil diameter, each dose group compared with placebo by ANOVA [3, 7]: no statistically significant differences
pupillary constriction [3, 8]: no evidence of pupillary constriction
average time to resumption of opioids ([4]; opioid-dependent patients, single 120 mg dose): greater than 20 hours
Time to resumption of OST compared with untreated patients or 60 mg noribogaine ([4]; single 180 mg dose): longer than untreated patients
VAS pain scores upon hand removal, each dose group compared with placebo by ANOVA ([5]; after adjusting for baseline differences, p=0.17): no statistically significant differences
duration of hand immersion in ice water, each dose group compared with placebo by ANOVA [5, 7]: no statistically significant differences
analgesic effect in the cold pressor test [5, 8]: no analgesic effect
CL/F ([6]; single oral 3 mg dose, plasma): 41.4 (7.0) L/h
CL/F ([6]; single oral 10 mg dose, plasma): 42.3 (12.0) L/h
CL/F ([6]; single oral 30 mg dose, plasma): 46.9 (16.4) L/h
CL/F ([6]; single oral 60 mg dose, plasma): 34.0 (11.4) L/h
Cmax and AUC versus dose ([6]; healthy volunteers, 3-60 mg single oral doses): increased linearly with dose
time of peak concentrations after oral dosing ([6]; healthy volunteers, across dose groups 3-60 mg): 2 to 3 h
absorption ([6]; healthy volunteers, oral dosing): rapidly absorbed
Vd ([6]; male, human, plasma, oral): 1420 to 3090 L
half-life ([6]; male, human, plasma, oral): 1680 to 3000 min
AUC(0-inf) ([6]; male, human, plasma, po, 3 mg): 74.2 ng·h/mL
AUC(0-t) ([6]; male, human, plasma, po, 3 mg): 72.2 ng·h/mL
Cmax ([6]; male, human, plasma, po, 3 mg): 5.2 ng/mL
Tmax ([6]; male, human, plasma, po, 3 mg): 1.9 h
Vd/F ([6]; male, human, plasma, po, 3 mg): 2490 L
half-life ([6]; male, human, plasma, po, 3 mg): 2450 min
AUC(0-inf) ([6]; male, human, plasma, po, 10 mg): 254 ng·h/mL
AUC(0-t) ([6]; male, human, plasma, po, 10 mg): 251 ng·h/mL
Cmax ([6]; male, human, plasma, po, 10 mg): 14.5 ng/mL
Tmax ([6]; male, human, plasma, po, 10 mg): 2.9 h
Vd/F ([6]; male, human, plasma, po, 10 mg): 3090 L
half-life ([6]; male, human, plasma, po, 10 mg): 2950 min
AUC(0-inf) ([6]; male, human, plasma, po, 30 mg): 700 ng·h/mL
AUC(0-t) ([6]; male, human, plasma, po, 30 mg): 678 ng·h/mL
Cmax ([6]; male, human, plasma, po, 30 mg): 55.9 ng/mL
Tmax ([6]; male, human, plasma, po, 30 mg): 1.8 h
Vd/F ([6]; male, human, plasma, po, 30 mg): 1850 L
half-life ([6]; male, human, plasma, po, 30 mg): 1660 min
AUC(0-inf) ([6]; male, human, plasma, po, 60 mg): 1960 ng·h/mL
AUC(0-t) ([6]; male, human, plasma, po, 60 mg): 1940 ng·h/mL
Cmax ([6]; male, human, plasma, po, 60 mg): 116 ng/mL
Tmax ([6]; male, human, plasma, po, 60 mg): 2.4 h
Vd/F ([6]; male, human, plasma, po, 60 mg): 1420 L
half-life ([6]; male, human, plasma, po, 60 mg): 1750 min
Cmax ([6]; male, human, serum, oral, 3 mg): 5.2 ng/mL
Cmax ([6]; male, human, serum, oral, 10 mg): 14.5 ng/mL
Cmax ([6]; male, human, serum, oral, 30 mg): 55.9 ng/mL
Cmax ([6]; male, human, serum, oral, 60 mg): 116 ng/mL
mean AUC/24 hr [6, 9]: 3.1 ng/mL
time after administration at which mean Cmax was observed [6, 9]: 1.9 h
mean AUC/24 hr [6, 10]: 10.6 ng/mL
time after administration at which mean Cmax was observed [6, 10]: 2.9 h
mean AUC/24 [6, 11]: 29.2 ng/mL
time after administration at which mean Cmax was observed [6, 11]: 1.75 h
mean AUC/24 [6, 12]: 61 ng/mL
time after administration at which mean Cmax was observed [6, 12]: 1.75 h
